Experimental findings from ChEMBL document CHEMBL3616468, “Spirooxindole-derived morpholine-fused-1,2,3-triazoles: Design, synthesis, cytotoxicity and apoptosis inducing studies” (Eur J Med Chem, 2015) are described below.

In general, IC50 refers to the point on the concentration scale where inhibition reaches its midpoint.

Structures are written as SMILES. Calls of active or inactive are those of the source. The calls are words filed in the database; no cut-off is given here.

Assay [1] relates to A549. Description: Antiproliferative activity against human A549 cells after 48 hrs by MTT assay. In kind it is functional, cell-based. The following applies: A549, 48 h. Background: Formazan colour is commonly taken as a measure of viable cells.
The test system of the next assay is HeLa. The experiment in a line: Antiproliferative activity against human HeLa cells after 48 hrs by MTT assay. In kind it is functional, cell-based.
Another assay deals with DU-145. The experiment in a line: Antiproliferative activity against human DU145 cells after 48 hrs by MTT assay. Conditions: DU-145, 48 h. In kind it is functional, cell-based.
The test system of a further assay is MCF7. The experiment in a line: Antiproliferative activity against human MCF7 cells after 48 hrs by MTT assay. It is filed as functional, cell-based. The following applies: MCF7, 48 h.
Assay [2] relates to A549. The experiment in a line: Induction of apoptosis in human A549 cells assessed as increase in intracellular reactive oxygen species level at cytotoxic IC50 level after 24 hrs by DCFH-DA staining based spectrofluorometry relative to control. It is filed as functional.
The test system of assay [3] is A549. Description: Induction of cell cycle arrest in human A549 cells assessed as accumulation at S phase at 1 uM after 24 hrs by propidium iodide staining based flow cytometry (reference value: 4.96%). It is filed as functional.
Assay [4] deals with A549. Description: Induction of apoptosis in human A549 cells assessed as horseshoe shaped nuclei at cytotoxic IC50 level after 24 hrs by […] staining based confocal fluorescence microscopic analysis. It is filed as functional, cell-based.
In assay [5] the test system is A549. Description: Induction of cell cycle arrest in human A549 cells assessed as accumulation at G1 phase at 1 uM after 24 hrs by propidium iodide staining based flow cytometry (reference value: 72.27%). It is filed as functional.
Assay [6] relates to A549. The experiment in a line: Induction of cell cycle arrest in human A549 cells assessed as accumulation at G1 phase at 2 uM after 24 hrs by propidium iodide staining based flow cytometry (reference value: 72.27%). In kind it is functional. Background: Flow cytometry measures light scatter and fluorescence of single cells or particles in a stream.
Assay [7] concerns A549. The experiment in a line: Induction of apoptosis in human A549 cells assessed as extremely condensed chromatin at 2 uM after 24 hrs by acridine orange/ethidium bromide staining based fluorescence microscopic analysis. In kind it is functional, cell-based.
Assay [8] concerns A549. Description: Induction of apoptosis in human A549 cells assessed as fragmented nuclei at cytotoxic IC50 level after 24 hrs by […] staining based confocal fluorescence microscopic analysis. In kind it is functional, cell-based.
The test system of assay [9] is A549. Description: Anticancer activity against human A549 cells assessed as decrease in viable cells at cytotoxic IC50 level after 48 hrs by phase contrast microscopic analysis. It is filed as functional, cell-based.
Assay [10] deals with A549. The experiment in a line: Induction of apoptosis in human A549 cells assessed as chromatin condensation at cytotoxic IC50 level after 24 hrs by […] staining based confocal fluorescence microscopic analysis. It is filed as functional, cell-based.
Assay [11] relates to A549. Description: Inhibition of cell migration in human A549 cells at cytotoxic IC50 level after 48 hrs by wound healing assay. In kind it is functional.
The test system of assay [12] is A549. Description: Induction of cell cycle arrest in human A549 cells assessed as accumulation at S phase at 2 uM after 24 hrs by propidium iodide staining based flow cytometry (reference value: 4.96%). In kind it is functional.
Assay [13] concerns A549. The experiment in a line: Induction of morphological change in human A549 cells assessed as nucleus shrinkage at cytotoxic IC50 level after 48 hrs by phase contrast microscopic analysis. It is filed as functional, cell-based.
The subject of assay [14] is A549. Description: Induction of apoptosis in human A549 cells assessed as disruption of mitochondrial membrane potential at cytotoxic IC50 level after 24 hrs by rhodamine-123 staining based spectrofluorometry relative to control. In kind it is functional.
In assay [15] the test system is A549. Description: Induction of cell cycle arrest in human A549 cells assessed as accumulation at G2/M phase at 2 uM after 24 hrs by propidium iodide staining based flow cytometry (reference value: 21.85%). It is filed as functional.
Assay [16] concerns A549. The experiment in a line: Induction of cell cycle arrest in human A549 cells assessed as accumulation at G2/M phase at 1 uM after 24 hrs by propidium iodide staining based flow cytometry (reference value: 21.85%). It is filed as functional.
Assay [17] concerns A549. Description: Induction of apoptosis in human A549 cells assessed as extremely condensed chromatin at 0.5 uM after 24 hrs by acridine orange/ethidium bromide staining based fluorescence microscopic analysis. In kind it is functional, cell-based.
Assay [18] concerns A549. Description: Induction of apoptosis in human A549 cells assessed as irregular distribution of chromatin at 1 uM after 24 hrs by acridine orange/ethidium bromide staining based fluorescence microscopic analysis. In kind it is functional, cell-based.
In assay [19] the test system is A549. The experiment in a line: Induction of morphological change in human A549 cells assessed as cell detachment at cytotoxic IC50 level after 48 hrs by phase contrast microscopic analysis. It is filed as functional, cell-based.
Assay [20] deals with A549. The experiment in a line: Induction of apoptosis in human A549 cells assessed as cell membrane blebbing at 0.5 uM after 24 hrs by acridine orange/ethidium bromide staining based fluorescence microscopic analysis. In kind it is functional.
Assay [21] has as its system A549. Description: Inhibition of cell migration in human A549 cells at cytotoxic IC50 level after 24 to 48 hrs by wound healing assay. In kind it is functional.
For assay [22], the system named is A549. Description: Induction of apoptosis in human A549 cells assessed as destructive fragmentation of nuclei at 1 uM after 24 hrs by acridine orange/ethidium bromide staining based fluorescence microscopic analysis. It is filed as functional, cell-based.
Assay [23] has as its system A549. The experiment in a line: Inhibition of cell migration in human A549 cells at cytotoxic IC50 level after 24 hrs by wound healing assay. It is filed as functional.

As to `CCN1C(=O)C2(Cn3nncc3CO2)c2cc(F)ccc21` (configuration not stated), the IC50 in the assay on A549 [1], in the assay on HeLa, with DU-145 and in the assay on MCF7 was more than 50 µM in each case.

Take `O=C1N(Cc2ccccc2)c2ccc(F)cc2C12Cn1nncc1CO2` (configuration not stated): the IC50 in the assay with A549 [1] is 19.9 µM; with HeLa it was more than 50 µM; with DU-145, 27.5 µM; in the assay with MCF7, 35.9 µM.

As for `O=C1N(Cc2ccccc2)c2ccc(Cl)cc2C12Cn1nncc1CO2` (configuration not stated), the IC50 in the assay with A549 [1] was 12.9 µM; with HeLa, 15.1 µM; in the assay with DU-145, 33.3 µM; in the assay on MCF7, 16.5 µM.

In the case of `O=c1[nH]cc(F)c(=O)[nH]1` [FLUOROURACIL], the figures for the half-maximal inhibitory concentration (IC50) in the assay on A549 [1], with HeLa and in the assay with DU-145 were 7.24 µM, 8.32 µM and 6.07 µM, respectively.

Turning to `CN1C(=O)C2(Cn3nncc3CO2)c2ccccc21` (configuration not stated), the half-maximal inhibitory concentration (IC50) in the assay with A549 [1] was 20.1 µM; in the assay with HeLa, 48 µM; in the assay on DU-145 it was more than 50 µM; in the assay with MCF7, 27.7 µM.

Take `CCN1C(=O)C2(Cn3nncc3CO2)c2cc(Br)ccc21` (configuration not stated): the IC50 with A549 [1], with HeLa, in the assay on DU-145 and in the assay with MCF7 was more than 50 µM each time.

`O=C1N(Cc2ccc(Br)cc2)c2ccc(Cl)cc2C12Cn1nncc1CO2` (configuration not stated): the IC50 was 23.4 µM with A549 [1], more than 50 µM in the assay with HeLa, more than 50 µM in the assay on DU-145 and 31.6 µM in the assay on MCF7.

On to `CN1C(=O)C2(Cn3nncc3CO2)c2cc(Br)ccc21` (configuration not stated), for which the IC50 in the assay on A549 [1], with HeLa, in the assay with DU-145 and with MCF7 was more than 50 µM in each case.

Regarding `COc1cccc2c1C(=O)c1c(O)c3c(c(O)c1C2=O)C[C@@](O)(C(=O)CO)C[C@@H]3O[C@H]1C[C@H](N)[C@H](O)[C@H](C)O1` [DOXORUBICIN], the half-inhibitory concentration (IC50) was determined as 1.26 µM in the assay with HeLa, 1.91 µM in the assay with DU-145 and 1.05 µM in the assay with MCF7.

Consider `O=C1N(Cc2ccccc2)c2ccc(Br)cc2C12Cn1nncc1CO2` (configuration not stated), for which the IC50 amounted to 14.8 µM in the assay on A549 [1], 31.5 µM with HeLa, 49 µM in the assay on DU-145 and 29.5 µM with MCF7.

For the compound `N#Cc1ccc(CN2C(=O)C3(Cn4nncc4CO3)c3ccccc32)cc1` (configuration not stated), the IC50 in the assay on A549 [1] is 12.6 µM; in the assay with HeLa it was 21.4 µM; with DU-145, 20.4 µM; in the assay with MCF7 it was 17.2 µM.

With `CN1C(=O)C2(Cn3nncc3CO2)c2cc(Cl)ccc21` (configuration not stated), the IC50 in the assay on A549 [1] was more than 50 µM; in the assay with HeLa, more than 50 µM; in the assay on DU-145 it was more than 50 µM; in the assay with MCF7, 35.5 µM.

In the case of `O=C1N(Cc2ccccc2)c2ccccc2C12Cn1nncc1CO2` (configuration not stated), the IC50 in the assay with A549 [1] was 10.5 µM; with HeLa, more than 50 µM; with DU-145, more than 50 µM; with MCF7, 17.8 µM.

Consider `CCN1C(=O)C2(Cn3nncc3CO2)c2ccccc21` (configuration not stated), for which the “fold change (FC)” value in the assay on A549 [2] is on record as 2.6. For the same compound, the Activity with A549 [3] was 15.63%; in the assay with A549 [5] it was 60.21%; in the assay on A549 [6], 46.04%; in the assay on A549 [12], 16.2%; with A549 [14], 48.2%; with A549 [15], 35.61%. Besides, the Activity with A549 [16] worked out at 19.77%. Further, the outcome in the assay on A549 [4], with A549 [7], with A549 [8], in the assay with A549 [9], with A549 [10] and in the assay on A549 [13] was Active. Also, the outcome in the assay on A549 [17], in the assay with A549 [18], in the assay with A549 [19], in the assay on A549 [20] and in the assay with A549 [22] was Active. The IC50 came out at 1.87 µM in the assay with A549 [1], 11.2 µM in the assay on HeLa, 19.9 µM with DU-145 and 8.87 µM in the assay on MCF7. Moreover, the “inhibition (INH)” value in the assay with A549 [11] was 56.1%; in the assay on A549 [21], 38.1%; with A549 [23], 54.9%.

Consider `Cc1ccc2c(c1)C1(Cn3nncc3CO1)C(=O)N2Cc1ccccc1` (configuration not stated), for which the IC50 with A549 [1] is 14.5 µM; with HeLa it was 18.2 µM; in the assay on DU-145 it was 19.7 µM; in the assay on MCF7, 19.9 µM.

As to `CN1C(=O)C2(Cn3nncc3CO2)c2cc(F)ccc21` (configuration not stated), the IC50 in the assay on A549 [1], in the assay on HeLa, in the assay with DU-145 and in the assay with MCF7 was more than 50 µM in each case.

`CCN1C(=O)C2(Cn3nncc3CO2)c2cc(Cl)ccc21` (configuration not stated): the IC50 with A549 [1] is 15.8 µM; with HeLa, more than 50 µM; in the assay on DU-145 it was 23.4 µM; in the assay on MCF7, 28.8 µM.

For the compound `O=C1N(Cc2ccc(Br)cc2)c2ccc(F)cc2C12Cn1nncc1CO2` (configuration not stated), the half-inhibitory concentration (IC50) amounted to 4.36 µM with A549 [1], 14.6 µM in the assay on HeLa, 37.1 µM with DU-145 and 8.31 µM in the assay on MCF7.

In the case of `N#Cc1ccc(CN2C(=O)C3(Cn4nncc4CO3)c3cc(Cl)ccc32)cc1` (configuration not stated), the 50% inhibitory concentration (IC50) with A549 [1] is 7.94 µM; with HeLa it was 22.3 µM; with DU-145, 28 µM; with MCF7 it was 10.2 µM.

Take `O=C1N(Cc2ccc(Br)cc2)c2ccc(Br)cc2C12Cn1nncc1CO2` (configuration not stated): in the assay on A549 [2], the “fold change (FC)” value stood at 2.3. Besides, the outcome in the assay with A549 [4], in the assay on A549 [8], in the assay with A549 [9], with A549 [10], in the assay with A549 [13] and with A549 [14] was Active. Further, the result with A549 [19] was Active. Moreover, the 50% inhibitory concentration (IC50) in the assay on A549 [1] was found to be 4.26 µM; in the assay with HeLa it was 12 µM; with DU-145, 8.14 µM; in the assay with MCF7 it was 6.29 µM. Also, the “inhibition (INH)” value in the assay with A549 [21] was 38.1%.

Take `Cc1ccc2c(c1)C1(Cn3nncc3CO1)C(=O)N2C` (configuration not stated): the half-maximal inhibitory concentration (IC50) was 7.41 µM with A549 [1], 10.2 µM with HeLa, 24 µM in the assay with DU-145 and 9.66 µM in the assay on MCF7.

`O=C1N(Cc2ccc(Br)cc2)c2ccccc2C12Cn1nncc1CO2` (configuration not stated): the IC50 came out at 14.5 µM in the assay on A549 [1], 15.5 µM in the assay on HeLa, 26.3 µM with DU-145 and 13.5 µM in the assay on MCF7.
